Patent publication US5317010A, “Parathyroid hormone analogues substituted at AA 25, 26, 27, and use in osteoporosis treatment” (Pang; Peter K. T., priority 1991, dated 1994)
Entries after “also recorded” stand apart in the source; their conditions may differ. Ends that are not written are not given here.

B1: Cs2001: human PTH 1-84, no substitution (SEQ ID NO:2) (peptide)
chain: SVSEIQLMHNLGKHLNSMERVEWLRKKLQDVHNFVALGASIAYRDGSSQRPRKKEDNVLVESHQKSLGEADKADVDVLIKAKPQ

Assays:
Sprague-Dawley rats = experiment: In vivo blood pressure measurement in anaesthetized rats
Procedure: Sprague-Dawley (S-D) rats were anaesthetized with pentobarbital and a cannula was inserted into the carotid artery. The rats were kept sedated during the procedure and were injected with PTH peptides only when the blood pressure of the rats were stable. Peptides were injected through a cannula in the jugular vein, in amounts of 1, 3 and 5 or more μg/kg and the mean systolic and diastolic blood pressure was monitored continuously throughout the procedure. Results are reported with comparison to bPTH-(1-34).

[1] = tested on: UMR-106 rat osteosarcoma cells; experiment: Intracellular free calcium concentration (FURA-2) with KCl stimulation; assay type: cell-based; conditions: cultured UMR osteoblast cells, in the presence of KCl
Procedure: Because osteoporosis is a progressive syndrome, a model is required and the use of cultured osteoblasts of the UMR-106.rat osteosarcoma cells, ATCC CRL 1661 have been used as the model. Uptake of calcium in these cells has been monitored using the FURA-2 method, wherein a fluorescent dye which is specific for calcium is used as a marker for calcium change into the cells. Cells are incubated with 1-10 μM of the acetomethoxy ester of FURA-2 for 30-60 minutes. Upon uptake, the ester is hydrolyzed to release free FURA-2, which selectively binds free Ca^2+. FURA-2 has a characteristic fluorescence spectrum, which wavelength is shifted when the dye binds to free Ca^2+. According to the method, Ca^2+ which is present in the cell can be quantified by exciting the dye at two different wavelengths, 340 and 380 nm. The emission fluorescence is measured at 510 nm. […] It is conventional to report the concentration of calcium within the cell in terms of the fluorescence ratio, the 340/380 ratio. […]
Intracellular free calcium concentration was measured using the fluorescent dye FURA-2 according to the method of Grynkiewicz et al., J. Biol. Chem., 260, 3440 (1985) and Pang et al., P. N. A. S. (USA), 87, 623 (1990). […] Quantitation is obtained by exciting the dye at two different wavelengths, preferably 340 and 380 nm and measuring the fluorescent emission at 510 nm. […]

[2] = tested on: rat tail artery helical strip; experiment: In vitro rat tail artery helical strip tension assay; conditions: precontracted with AVP, FIG. 20
Description: We have developed a method for modeling the hypotensive effects of natural and synthetic chemical compounds using helically cut tail arteries from Sprague-Dawley rats in a Sawyer-Bartlestone chamber, measuring the change in tension with a force displacement transducer. This method and the effect of bovine PTH-(1-34) in this system is described in Blood Vessels, 22, 57 (1985). […] FIGS. 12, 16 and 20 illustrate the effect of the PTH analogues of this invention as measured using this in vitro technique. Alternatively, the strips may be precontracted using other pressor substances such as norepinephrine (NE) or KCl.
The assay was performed according to Pang et al., Blood Vessels, 22, 57 (1985). Sprague-Dawley rats were anaesthetized with pentobarbital and the tail artery excised and placed in ice-cold Krebs-Hanseleit solution (KHS) oxygenated with 95% O2, 5% CO2. […] The force generated by the strips was measured with a Grass FT03 force displacement transducer and recorded on a polygraph. […]
One to two minutes prior to addition of a peptide, the strips were contracted by addition of either arginine vasopressin (AVP), potassium chloride (KCl) or norepinephrine (NE) to the bath. The peptide was then added to the bath and the degree of relaxation measured. […] Drug dose is calculated on the basis of the final concentration in the bath solution.

[3] = tested on: right atrial tissue of Sprague-Dawley rats; experiment: In vitro atrial contractility and contraction rate measurement; conditions: Sprague-Dawley rat right atrium; for effect on contraction rate of right atrial tissue: FIGS. 24-25
Description: We have also developed a method of modeling the chronotropic effects of natural and synthetic chemicals using the right atrium from Sprague-Dawleyrats and measuring the change in the force and rate of atrium contraction. This method and the effects of bovine PTH (1-34) in this system are described in Tenner et al, The Canadian Journal of Physiology and Pharmacology, Volume 61, No. 10 (1983) pp. 1162-1167. […] FIGS. 24-25 illustrate the effect of the PTH analogues of this invention as measured using this in vitro technique.
The assay was performed according to Tenner et al., Canadian Journal of Physiology and Pharmacology, Vol. 61, No. 10 (1983) pp. 1162-1167. Sprague-Dawley rats weighing between 100 and 250 g were treated with heparin (500 IU, i.p.) 15 minutes prior to decapitation. Thoracotomies were performed and the heart rapidly excised and placed in a cold physiological salt solution (PSS) having the following composition (in millimolar): NaCl, 120; KCl, 5.63; CaCl2, 2.0; MgCl2, 2.1; NAHCO3, 25.0; dextrose, 9.7. The solution was continuously aerated by a gas mixture of 95% O2 -5% CO2. The right atrium was isolated and suspended in a tissue chamber containing 20 mL of PSS at 37° C., pH 7.4. Atria were allowed to equilibrate for 1 hr under a resting tension of 1 g.
The atrial rate and force were determined from contractions recorded by a Grass FT.03 force-displacement transducer and a Grass model 79 polygraph. The Basial atrial rate f or control atria (as determined by counting the frequency of contractions) was 258±7 bpm (n=29). Basal developed force of the spontaneously beating right atria was 0.33±0.06 g (n=10) . Dose-response curves for the peptides were obtained by cumulative addition of the respective peptides. Drug dose is calculated on the basis of the final concentration in the bath solution.

Molecule	condition of rats due to blood pressure (Sprague-Dawley rats; 5 μg/kg, Sprague-Dawley rats)	effect on KCl-induced intracellular [Ca2+]i increase [1]	effect on mean arterial blood pressure (Sprague-Dawley rats; anesthetized Sprague-Dawley rats, FIGS. 15, 19)	relaxation of rat tail artery helical strips [2]	effect on contractility of right atrial tissue ([3]; FIG. 24)	effect on contraction rate of right atrial tissue [3]
PTH: parathyroid hormone (native PTH); in FIGS. 14 a-d it is bPTH-(1-34) [reference compound]	essentially moribund	inhibits intracellar [Ca^2+ ]i increases	–	–	–	–
SVSEIQLMHNLGKHLNSMERVEWLAAALQDVHNF [Cs221]	–	comparable to the inhibition of intracellular [Ca^2+ ]i increases by hPTH; also recorded: lower intracellular calcium increments	least decrease in blood pressure	least relaxation	minimal effect	minimal effect
B1	–	–	–	–	–	increase the contraction rate
